Several values for one entry are separate records, joined by “and”; a condition that tells them apart may be missing. Equal entries are not always repeated. Where two headings read alike, the source gives them in different places.
Columns and labels:
[1] = test system: pedal ganglia; assay: NO release from excised pedal ganglia (NO-selective microprobe); assay type: cell-based, Mytilus edulis
Experimental: For the nitric oxide assay, ten pedal ganglia (per determination) dissected from M. edulis were bathed in 1 mL sterile phosphate buffered saline (PBS). […] For the opiate receptor antagonist experiments, ganglia were pretreated with naloxone for 10 minutes prior to reticuline addition. NO release was monitored with an NO-selective microprobe manufactured by World Precision Instruments (Sarasota, Fla.). The sensor was positioned approximately 100 μm above the respective tissue surface. […] The NO detection system was calibrated daily. The probe was allowed to equilibrate for 10 minutes in the incubation medium free of tissue before being transferred to vials containing the ganglia for another 5 minutes. Manipulation and handling of the ganglia was only performed with glass instruments. Data was acquired using the Apollo-4000 free radical analyzer (World Precision Instruments, Sarasota, Fla.). The experimental values were then transferred to Sigma-Plot and -Stat (Jandel, Calif.) for graphic representation and evaluation.

[2] = test system: pedal ganglia; assay: NO release after daily morphine injections (tolerance); assay type: in vivo, Mytilus
Experimental: 45 Mytilus animals were divided into three groups. […] Two hours post-injection, NO release was measured.

[3] = test system: human immune and vascular tissues; assay: NO release from human immune and vascular tissues; assay type: cell-based; conditions: morphine 10^−6 M
[4] = test system: SK-N-SH neuroblastoma cell line; assay: Cellular morphology (Form Factor) of neuroblastoma cells; assay type: cell-based, human; conditions: concomitant morphine and IFNγ
Experimental: Cell viability was determined via Trypan blue exclusion. An inverted light microscope (Nikon) with a phase-contrast filter was used to observe the cells. Pictures of the cells were taken via a digital camera (Optronix) attached to the microscope ocular. Images were uploaded onto ImagePro Plus Software (Applied Biosystems), where cell viability was calculated based on both the number of cells covering the field and the cells that present as dead from the stain. In addition, ImagePro Plus was used for determining cellular morphology. The area and perimeter were found and used in the formula (4π*Area)/(Perimeter)^2, resulting in a value between 0 (a straight line) and 1 (a perfect circle).

[5] = test system: NMDA NR1 Subunit; assay: NMDA NR1 subunit mRNA expression (RT-PCR); assay type: cell-based, human
Experimental: (§1) Isolation of total RNA was performed via RNA MiniPrep Kit (QIAGEN). Concentration of RNA was determined via GeneQuant II Spectrophotometer (Pharmacia Biotech) by multiplying A260 value with dilution factor and nucleic acid constant (0.04). Agarose gel electrophoresis (1%) was used to check for RNA quality.
(§2) RT and PCR reactions were performed in GeneAmp PCR System 9700 (Applied Biosystems) using reverse transcriptase and Taq DNA Polymerase. Forward and reverse gene specific-primers for various subunits of the 20S proteasome and immunoproteasome were either obtained from the literature or designed through Primer Express Software 2.0 (Applied Biosystems) (Table 4). NMDA receptor subunit primers were also designed (Table 4). NMDA receptor expression was used as a marker of neurodegenerative disease.
(§3) All primers were optimized for annealing temperatures and cycles (Table 5). Gel electrophoresis (2% agarose, 0.01% ethidium bromide) was performed and analyzed using a UV transilluminator (UVP) and GelPro Analyzer Software (Applied Biosystems). Relative band intensity was normalized with β-Actin reference gene.

[6] = test system: NMDA NR2B Subunit; assay: NMDA NR2B subunit mRNA expression (RT-PCR); assay type: cell-based, human
Experimental: as §1, §2, §3

[7] = test system: 20S Proteasome X Subunit (β5); assay: 20S proteasome X subunit mRNA expression (RT-PCR); assay type: cell-based, human; conditions: morphine 5 μM, 24 hours; control 0.716±0.015
Experimental: as §1, §2, §3

[8] = test system: 20S Proteasome LMP7 Subunit (β5i); assay: LMP7 immunoproteasome subunit mRNA expression (RT-PCR); assay type: cell-based, human
Experimental: as §1, §2, §3

[9] = test system: 20S Proteasome X (β5) Subunit; assay: 20S proteasome X subunit protein (Western blot); assay type: cell-based, human
Experimental: (§4) To determine protein concentrations, protein was harvested using the following buffer: 20 mM Hepes (Sigma), 100 mM NaCl (Fisher), 10 mM NaF (Sigma), 1% Triton X-100 (Sigma), 1 mM sodium orthovanadate (Sigma), 10 mM EDTA (Sigma), pH 7.4, 0.1% protease inhibitor cocktail (Sigma), and ddH2O. Homogenized samples were spun in an ultracentrifuge at 10,000G for 20 minutes at 4° C. Concentration was determined via the Bradford assay (Bio-Rad) using bovine serum albumin (BSA, Sigma) for standard curve. To eliminate any potential pipetting error, samples and standards were read in triplicate.
(§5) Western blotting was performed as follows. SDS-polyacrylamide gels (12% for separation and 5% for stacking) were made using the Mini Trans-Blot Cell (Bio-Rad). Based on the concentrations from the protein concentration determination assay, the proteins were mixed with 2× Protein Loading Buffer (0.2M DTT) for a final volume of 24 μL. Tris-Glycine Electrophoresis Buffer (1×) was used in SDS-PAGE, and proteins were separated at constant amperage (35 mA).
(§6) Subsequent protein transfer to a nitrocellulose membrane involved use of the Mini Trans-Blot Cell apparatus run at constant voltage (100V) for 40 minutes. […]
(§7) Substrate (Pierce) was administered as a means of stimulating chemiluminescence. Blots were developed and subsequently analyzed for relative band intensity using Gel-Pro software (Applied Biosystems).

[10] = test system: 26S proteasome; assay: Chymotrypsin activity of the 26S proteasome (fluorometric); assay type: cell-based, human
Experimental: (§8) Proteasome function assays were performed in an effort to examine the modulation in levels of protein degradation. Fluorometric assays were performed for both the chymotrypsin activity of the 26S proteasome as well as activity of the whole 20S proteasome using procedures adapted from Kotamraju et al. (Proc. Natl. Acad. Sci. USA, 100:10653-8 (2003)). Excitation at 365 nm and emission at 460 nM of the fluorogenic compound, […] (AMC), were measured using a Spectrofluoroscence Detector (McPherson).

[11] = test system: 20S proteasome; assay: Activity of the whole 20S proteasome (fluorometric); assay type: cell-based, human
Experimental: as §8

[12] = test system: Ubiquitin; assay: Free ubiquitin (Western blot); assay type: cell-based, human
Experimental: as §4, §5, §6, §7

[13] = test system: Immunoproteasome LMP7 (β5i) Subunit; assay: LMP7 polypeptide expression (Western blot); assay type: cell-based, human; conditions: 36 and 48 hours
Experimental: as §4, §5, §6, §7

[14] = test system: SH-SY5Y cells
Experimental: At various time points (initial and 1, 2, and 7 days), the cells were washed in phosphate buffered saline (PBS), placed in 250 μL PBS, and assessed for NO release. NO release was measured using an Apollo-4000 free radical analyzer with a 30 μm probe. The probe was calibrated daily with SNAP. Each assay was performed in quadruplicate. The mean±the standard error were graphed for each time point.

[15] = test system: Mytilus animals; assay: TNF-α-induced death of animals; conditions: morphine 10^−7 M daily for four days pre-treatment
Experimental: 100 healthy Mytilus animals were treated with 10 U/mL of TNF-α by injection.

[16] = test system: human saphenous veins; assay: NO release from human saphenous veins; conditions: 2×10^−7 M morphine
[17] = test system: SK-N-SH neuroblastoma cell line; assay: NO release from SK-N-SH neuroblastoma cells; conditions: morphine sulfate 5 μM; baseline 2 nM NO
Experimental: The human SK-N-SH neuroblastoma cell line (ATCC #HTB-11) was used as a cellular model. Cells were propagated in Minimum Essential Medium alpha (MEMα) with 10% fetal bovine serum (FBS), 2% penicillin/streptomycin, 1.5 g/L NaHCO3, and 1.0 mM pyruvic acid. A 5% CO2 incubator (NAPCO) at 37° C. was used for maintenance of temperature and pH. […] When needed, cells were plated in 6- or 12-well plates using a hemocytometer (2×10^5 cells/well in 6-well plates or 1×10^5 cells/well in 12-well plates). Experimental manipulations were performed under sterile conditions under a lamina airflow hood after cells had adhered to the bottom of the plates.

[18] = test system: BACE-1; assay: BACE-1 mRNA expression in HTB-11 cells (RT-PCR); conditions: 24 hours
Experimental: (§9) SH-SY5Y human neuroblastoma cells (ATCC, USA) were cultured in Dulbecco's modified Eagle's medium/Ham's nutrient mixture (DMEM-F12) (Invitrogen, USA), and HTB-11 human neuroblastoma cells (ATCC, USA) were cultured in Minimum Essential Medium Alpha Medium (MEM-α) (Invitrogen, USA). […] All treatments were performed under a sterile hood.
(§10) After the treatment time-period, cells were harvested, and total RNA was extracted using RNeasy RNA Isolation kit (Qiagen) following the manufacturer's procedures. Total RNA yield was determined using a Spectrophotometer RNA/DNA calculator (Pharmacia Biotech). Total RNA concentration was then standardized for semi-quantitative RT-PCR, which was carried out in a Geneamp Thermocycler PCR System 9700 (P.E. Applied Biosystems). […] PCR products and a 100 bp DNA marker were then loaded in a 2% agarose gel stained with ethidium bromide. Gel electrophoresis was performed using a power-supply (E-C Apparatus Corp.) set at 110V with constant amperage for 1.5 hours. Gels were then photographed using a Gel Documentation System (UVP), and bands analyzed using Gel-Pro Analyzer (MediaCybernetics) on a P4 Windows machine.

[19] = test system: BACE-2; assay: BACE-2 mRNA expression in HTB-11 cells (RT-PCR); conditions: morphine, 24 hours
Experimental: as §9, §10

[20] = test system: immunocytes; assay: LPS activation of hemolymph cells from morphine pre-treated animals; conditions: single pre-treatment, morphine 10^−6 M, LPS 1 μg/mL

## CN1CC[C@]23c4c5ccc(O)c4O[C@H]2[C@@H](O)C=C[C@H]3[C@H]1C5 [Morphine, morphine]
[1]; ligand 10^−7 M
  NO Peak Level: 24.3 ± 3.1 nM
  NO Peak Time: 0.8 ± 0.2 min
[1]; reticuline 10^−7 M, morphine 10^−6 M
  duration of ganglionic NO release: 5 min
[2]; 0.01 μM morphine daily
  NO release on day one versus days two, three, and four: level similar
[2]; 1 μM morphine daily
  NO release after four days versus day one: substantially lower
[2]; 1 μM morphine for four days
  NO release on 10 μM morphine challenge versus one day of 1 μM: about half
[3]
  NO release: 26 to 29 nM
[4]
  Form Factor (FF): 0.58±0.01
[5]
  NR1 expression: 1.40±0.056 AU
[6]
  NR2B expression: 1.09±0.06 AU and 1.17±0.04 AU
[7]
  proteasomal X subunit mRNA expression: 0.868±0.007 AU
[8]; 5 μM morphine with rotenone, 24 hours
  LMP7 mRNA expression: 0.792±0.001 AU
[8]; p<0.034
  effect on IFNγ-induced LMP7 mRNA: blocked the LMP7 increase induced by IFNγ
[9]
  X subunit protein band intensity: 162 AU and 188 AU and 168 AU and 154 AU
[10]
  activity of the chymotrypsin functional 26S active site: 277 ± 8.0 pM
[11]
  20S proteasome activity: decrease in 20S proteasomal function
[12]; 1 μM morphine, control 44
  free ubiquitin: 64 AU
[12]; 5 μM morphine
  free ubiquitin: 125 AU
[13]
  effect on IFNγ-stimulated LMP7 polypeptide expression: blocked this action
[14]; 10^−6 M morphine daily for six days, 10^−6 M on the seventh day
  NO release: 3.4 nM
[14]; morphine 10^−6 M
  NO release: 3 to 4 nM
[15]
  effect on TNF-α-induced death: reduced the number of animals that died
[16]
  NO released: 7 ± 2 nM
[17]
  peak NO release: 22.3 nM
[18]; 1 μM morphine
  down regulation of BACE-1 expression: 44%
[18]; 5 μM morphine
  down regulation of BACE-1 expression: 18%
[19]
  BACE-2 expression: up regulates the expression of BACE-2
[20]
  activation of LPS-treated cells: 19.3±3.8%

Source: patent publication US9474749B2 (priority 2004, dated 2016)
